# Test results as given in ChEMBL document CHEMBL3797052 (Eur J Med Chem, 2016).
# Tested on: NCI-H460
# Test: Antiproliferative activity against human NCI-H460 cells assessed as cell growth at 10^-8 M after 48 hrs by sulforhodamine B assay
# Format: functional
# Conditions: NCI-H460, 48 h, read-out: Activity
row,Compound,growth at 0.01 µM [%]
1,CNC(=O)c1cc(Oc2ccc3nc(NC(=O)c4cc(C(F)(F)F)cc(C(F)(F)F)c4)sc3c2)ccn1,99

# Tested on: not listed separately
# Test: Antiproliferative activity against human HCT116 cells assessed as cell growth at 10^-6 M after 48 hrs by sulforhodamine B assay
# Format: functional
# Conditions: HCT-116, 48 h, read-out: Activity
row,Compound,growth at 1 µM [%]
1,CNC(=O)c1cc(Oc2ccc3nc(NC(=O)c4cc(C(F)(F)F)cc(C(F)(F)F)c4)sc3c2)ccn1,99

# Tested on: not listed separately
# Test: Antiproliferative activity against human RXF393 cells assessed as cell growth at 10^-7 M after 48 hrs by sulforhodamine B assay
# Format: functional
# Conditions: RXF 393, 48 h, read-out: Activity
row,Compound,growth at 0.1 µM [%]
1,CNC(=O)c1cc(Oc2ccc3nc(NC(=O)c4cc(C(F)(F)F)cc(C(F)(F)F)c4)sc3c2)ccn1,94

# Tested on: not listed separately
# Test: Antiproliferative activity against human Caki1 cells assessed as cell growth at 10^-4 M after 48 hrs by sulforhodamine B assay
# Format: functional
# Conditions: CAKI-1, 48 h, read-out: Activity
row,Compound,growth at 100 µM [%]
1,CNC(=O)c1cc(Oc2ccc3nc(NC(=O)c4cc(C(F)(F)F)cc(C(F)(F)F)c4)sc3c2)ccn1,-63

# Tested on: not listed separately
# Test: Antiproliferative activity against human COLO205 cells assessed as cell growth at 10^-4 M after 48 hrs by sulforhodamine B assay
# Format: functional
# Conditions: COLO 205, 48 h, read-out: Activity
row,Compound,growth at 100 µM [%]
1,CNC(=O)c1cc(Oc2ccc3nc(NC(=O)c4cc(C(F)(F)F)cc(C(F)(F)F)c4)sc3c2)ccn1,-88

# Tested on: U-251
# Test: Antiproliferative activity against human U251 cells assessed as cell growth at 10^-6 M after 48 hrs by sulforhodamine B assay
# Format: functional
# Conditions: U-251, 48 h, read-out: Activity
row,Compound,growth at 1 µM [%]
1,CNC(=O)c1cc(Oc2ccc3nc(NC(=O)c4cc(C(F)(F)F)cc(C(F)(F)F)c4)sc3c2)ccn1,99

# Tested on: MDA-MB-468
# Test: Antiproliferative activity against human MDA-MB-468 cells assessed as growth inhibition after 48 hrs by sulforhodamine B assay
# Format: functional
# Conditions: MDA-MB-468, 48 h
Compound,GI50 [µM],TGI [µM]
CNC(=O)c1cc(Oc2ccc3nc(NC(=O)c4cc(C(F)(F)F)cc(C(F)(F)F)c4)sc3c2)ccn1,3.18,14.2

# Same assay, conditions: MDA-MB-468, 48 h, read-out: LC50 (the source's name)
row,Compound,CC50 [µM]
1,CNC(=O)c1cc(Oc2ccc3nc(NC(=O)c4cc(C(F)(F)F)cc(C(F)(F)F)c4)sc3c2)ccn1,> 100

# Tested on: HT-29
# Test: Antiproliferative activity against human HT-29 cells assessed as growth inhibition after 48 hrs by sulforhodamine B assay
# Format: functional
# Conditions: HT-29, 48 h
Compound,GI50 [µM],LC50 [µM],TGI [µM]
CNC(=O)c1cc(Oc2ccc3nc(NC(=O)c4cc(C(F)(F)F)cc(C(F)(F)F)c4)sc3c2)ccn1,3.86,96.9,16.8

# Tested on: not listed separately
# Test: Antiproliferative activity against human PC3 cells assessed as cell growth at 10^-4 M after 48 hrs by sulforhodamine B assay
# Format: functional
# Conditions: PC-3, 48 h, read-out: Activity
row,Compound,growth at 100 µM [%]
1,CNC(=O)c1cc(Oc2ccc3nc(NC(=O)c4cc(C(F)(F)F)cc(C(F)(F)F)c4)sc3c2)ccn1,-42

# Tested on: not listed separately
# Test: Antiproliferative activity against human BT549 cells assessed as cell growth at 10^-6 M after 48 hrs by sulforhodamine B assay
# Format: functional
# Conditions: BT-549, 48 h, read-out: Activity
row,Compound,growth at 1 µM [%]
1,CNC(=O)c1cc(Oc2ccc3nc(NC(=O)c4cc(C(F)(F)F)cc(C(F)(F)F)c4)sc3c2)ccn1,92

# Tested on: not listed separately
# Test: Antiproliferative activity against human OVCAR5 cells assessed as growth inhibition after 48 hrs by sulforhodamine B assay
# Format: functional
# Conditions: OVCAR-5, 48 h
Compound,GI50 [µM],TGI [µM]
CNC(=O)c1cc(Oc2ccc3nc(NC(=O)c4cc(C(F)(F)F)cc(C(F)(F)F)c4)sc3c2)ccn1,4.23,25

# Same assay, conditions: OVCAR-5, 48 h, read-out: LC50 (the source's name)
row,Compound,CC50 [µM]
1,CNC(=O)c1cc(Oc2ccc3nc(NC(=O)c4cc(C(F)(F)F)cc(C(F)(F)F)c4)sc3c2)ccn1,> 100

# Tested on: SN12C
# Test: Antiproliferative activity against human SN12C cells assessed as cell growth at 10^-8 M after 48 hrs by sulforhodamine B assay
# Format: functional
# Conditions: read-out: Activity
row,Compound,growth at 0.01 µM [%]
1,CNC(=O)c1cc(Oc2ccc3nc(NC(=O)c4cc(C(F)(F)F)cc(C(F)(F)F)c4)sc3c2)ccn1,98

# Tested on: not listed separately
# Test: Antiproliferative activity against human PC3 cells assessed as cell growth at 10^-6 M after 48 hrs by sulforhodamine B assay
# Format: functional
# Conditions: PC-3, 48 h, read-out: Activity
row,Compound,growth at 1 µM [%]
1,CNC(=O)c1cc(Oc2ccc3nc(NC(=O)c4cc(C(F)(F)F)cc(C(F)(F)F)c4)sc3c2)ccn1,80

# Tested on: NCI-H23
# Test: Antiproliferative activity against human NCI-H23 cells assessed as cell growth at 10^-8 M after 48 hrs by sulforhodamine B assay
# Format: functional
# Conditions: NCI-H23, 48 h, read-out: Activity
row,Compound,growth at 0.01 µM [%]
1,CNC(=O)c1cc(Oc2ccc3nc(NC(=O)c4cc(C(F)(F)F)cc(C(F)(F)F)c4)sc3c2)ccn1,96

# Tested on: Malme-3M
# Test: Antiproliferative activity against human MALME-3M cells assessed as cell growth at 10^-6 M after 48 hrs by sulforhodamine B assay
# Format: functional
# Conditions: read-out: Activity
row,Compound,growth at 1 µM [%]
1,CNC(=O)c1cc(Oc2ccc3nc(NC(=O)c4cc(C(F)(F)F)cc(C(F)(F)F)c4)sc3c2)ccn1,80

# Tested on: not listed separately
# Test: Antiproliferative activity against human IGROV1 cells assessed as growth inhibition after 48 hrs by sulforhodamine B assay
# Format: functional
# Conditions: IGROV-1, 48 h
Compound,GI50 [µM],TGI [µM]
CNC(=O)c1cc(Oc2ccc3nc(NC(=O)c4cc(C(F)(F)F)cc(C(F)(F)F)c4)sc3c2)ccn1,4.26,27

# Same assay, conditions: IGROV-1, 48 h, read-out: LC50 (the source's name)
row,Compound,CC50 [µM]
1,CNC(=O)c1cc(Oc2ccc3nc(NC(=O)c4cc(C(F)(F)F)cc(C(F)(F)F)c4)sc3c2)ccn1,> 100
